Columns and labels:
[1] = target: KDR (h) (VEGFR2) (Homo sapiens (Human), UniProt P35968); experiment: KDR (VEGFR2) (enzymatic assay), TR-FRET; assay type: biochemical; details: 3 μM ATP; read-out: VEGFR KDR pIC50 (converted)
[2] = tested on: Ba/F3-KDR-transfected cells; experiment: cells; details: read-out: BAF3-KDR (MIN IL3 pIC50) (converted)
[3] = tested on: Ba/F3-FGFR1-transfected cells; experiment: cells; details: read-out: BAF3-FGFR1 (MIN IL3 pIC50) (converted)
[4] = tested on: Ba/F3-FGFR4-transfected cells; experiment: cells; details: read-out: BAF3-FGFR4 (pIC50) (converted)

Chain of KDR (h) (VEGFR2) (P35968 20-1356): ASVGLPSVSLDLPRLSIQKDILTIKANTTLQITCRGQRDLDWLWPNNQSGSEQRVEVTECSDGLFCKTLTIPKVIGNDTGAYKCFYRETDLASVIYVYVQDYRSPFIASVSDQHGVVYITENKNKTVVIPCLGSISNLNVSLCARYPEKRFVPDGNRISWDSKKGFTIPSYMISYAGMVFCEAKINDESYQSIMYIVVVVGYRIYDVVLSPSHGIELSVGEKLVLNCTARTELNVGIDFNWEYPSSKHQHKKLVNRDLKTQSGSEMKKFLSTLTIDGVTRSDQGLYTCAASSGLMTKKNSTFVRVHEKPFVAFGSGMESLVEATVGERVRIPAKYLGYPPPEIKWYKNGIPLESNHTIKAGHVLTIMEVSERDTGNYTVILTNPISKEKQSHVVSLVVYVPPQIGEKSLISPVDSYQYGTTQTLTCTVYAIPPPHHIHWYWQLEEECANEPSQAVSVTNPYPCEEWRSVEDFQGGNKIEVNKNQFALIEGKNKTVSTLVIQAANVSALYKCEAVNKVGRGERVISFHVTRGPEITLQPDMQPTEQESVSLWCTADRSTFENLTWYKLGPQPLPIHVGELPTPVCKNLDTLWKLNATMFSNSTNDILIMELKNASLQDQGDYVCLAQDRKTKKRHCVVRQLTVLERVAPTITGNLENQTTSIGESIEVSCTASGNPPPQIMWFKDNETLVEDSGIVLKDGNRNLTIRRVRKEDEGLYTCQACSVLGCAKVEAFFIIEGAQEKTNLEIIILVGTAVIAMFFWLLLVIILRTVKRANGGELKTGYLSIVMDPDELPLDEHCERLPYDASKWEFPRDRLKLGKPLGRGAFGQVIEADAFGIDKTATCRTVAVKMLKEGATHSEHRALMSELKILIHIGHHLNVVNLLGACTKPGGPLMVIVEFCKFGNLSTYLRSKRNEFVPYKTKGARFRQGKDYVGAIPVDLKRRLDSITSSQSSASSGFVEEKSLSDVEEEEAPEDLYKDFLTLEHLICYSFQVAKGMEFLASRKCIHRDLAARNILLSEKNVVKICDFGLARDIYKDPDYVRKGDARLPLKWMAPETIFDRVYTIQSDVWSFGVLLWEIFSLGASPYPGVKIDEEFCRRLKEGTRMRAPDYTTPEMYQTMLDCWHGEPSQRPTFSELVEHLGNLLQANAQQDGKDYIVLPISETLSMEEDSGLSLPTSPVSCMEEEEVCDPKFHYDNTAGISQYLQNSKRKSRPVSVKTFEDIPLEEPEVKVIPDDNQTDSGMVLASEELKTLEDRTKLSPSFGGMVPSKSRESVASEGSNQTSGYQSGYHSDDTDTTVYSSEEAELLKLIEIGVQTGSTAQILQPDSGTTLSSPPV

| IC50 [1] [nM] | IC50 [3] [nM] | IC50 [4] [nM] | Structure (SMILES) | IC50 [2] [nM] |
| --- | --- | --- | --- | --- |
| > 1000 | – | – | COc1cc(OC)c(F)c(N(C[C@@H]2CCC(=O)N2)c2ncc3ncc(-c4cnn(C)c4)nc3n2)c1 [Compound 11] | – |
| 1000 | – | – | COc1cc(OC)c(F)c(N(C[C@H]2CCC(=O)N2)c2ncc3ncc(-c4cnn(C)c4)nc3n2)c1 [Compound 10] | – |
| 100 | – | – | COc1cc(OC)c(F)c(N(Cc2nccn2S(=O)(=O)N(C)C)c2ncc3ncc(-c4cnn(C)c4)nc3n2)c1F [Compound 1] | – |
| 25.1 | 6.31 | 25.1 | COc1cc(OC)c(F)c(N(Cc2ncc[nH]2)c2ncc3ncc(-c4cnn(C)c4)nc3n2)c1F [Compound 2] | – |
| 251 | – | – | COc1cc(OC)c(F)c(N(Cc2ncc[nH]2)c2ncc3ncc(-c4cnn(C)c4)nc3n2)c1 [Compound 13] | – |

Second part, the molecule before the results:

| Structure (SMILES) | IC50 [1] [nM] | IC50 [3] [nM] | IC50 [4] [nM] | IC50 [2] [nM] |
| --- | --- | --- | --- | --- |
| CNCCN(c1ncc2ncc(-c3cnn(C)c3)nc2n1)c1c(F)c(OC)cc(OC)c1F [Compound 9] | 398 | – | – | 2510 |
| COc1cc(OC)cc(N(CC2CC2)c2ncc3ncc(-c4ccccc4)nc3n2)c1 [Compound 7] | > 1000 | – | – | > 10000 |
| COc1cc(OC)cc(N(CCO)c2ncc3ncc(-c4cnn(C)c4)nc3n2)c1 [Compound 3] | > 1000 | – | – | > 10000 |
| COc1cc(OC)cc(N(CCO)c2ncc3ncc(-c4ccccc4)nc3n2)c1 [Compound 4] | – | – | – | > 10000 |
| COc1cc(OC)c(F)c(N(C[C@@H]2CCC(=O)N2)c2ncc3ncc(-c4cnn(C)c4)nc3n2)c1F [Compound 8] | 794 | – | – | > 10000 |

Reference: US10272087B2, “Pteridines as FGFR inhibitors” (ASTEX THERAPEUTICS LIMITED, priority 2012, dated 2019)
